Source: ChEMBL document CHEMBL3091287, “The ameliorating effects of 2,3-dihydroxy-4-methoxyacetophenone on scopolamine-induced memory impairment in mice and its neuroprotective activity” (Bioorg Med Chem Lett, 2013)
The source made the active and inactive calls. The rule behind the calls is not given here.

Columns and labels:
[1] = Antioxidant activity assessed as hydrogen peroxide radical scavenging activity; assay type: functional
[2] = tested on: Radical scavenging activity; assay: Antioxidant activity assessed as DPPH radical scavenging activity after 30 mins; assay type: functional
HT-22 [3] = assay: Neuroprotective activity in mouse HT22 cells assessed as inhibition of glutamate-induced increase of intracellular calcium level at 10 to 100 uM after 2 hrs by Fura-2 AM assay; assay type: functional, cell-based
Mus musculus [4] = assay: Toxicity in ICR mouse assessed as motor ability by measuring reduction of scopolamine-induced swimming speed at 1 to 50 mg/kg, po administered 1 hr before scopolamine challenge measured on day 4 by Morris water maze test; assay type: organism-based; set-up: dose 1-50 mg/kg, route oral; settings: in vivo
Mus musculus [5] = assay: Cognitive-enhancing effect in ICR mouse assessed as reduction of scopolamine-induced increase in mean distance to platform at 1 to 50 mg/kg, po administered 1 hr before scopolamine challenge measured on day 4 by Morris water maze test; assay type: functional, organism-based
Mus musculus [6] = assay: Cognitive-enhancing effect in ICR mouse assessed as reduction of scopolamine-induced escape latency at 50 mg/kg, po administered 1 hr before scopolamine challenge measured on day 2 to 4 during trial 1 and 2 by Morris water maze test; assay type: functional, organism-based; set-up: dose 50 mg/kg
Mus musculus [7] = assay: Cognitive-enhancing effect in ICR mouse assessed as reduction of scopolamine-induced escape latency at 40 mg/kg, po administered 1 hr before scopolamine challenge measured on day 3 during trial 1 and 2 by Morris water maze test; assay type: functional, organism-based; set-up: dose 40 mg/kg
Mus musculus [8] = assay: Cognitive-enhancing effect in ICR mouse assessed as reduction of scopolamine-induced escape latency at 1 to 20 mg/kg, po administered 1 hr before scopolamine challenge measured on day 4 during trial 1 and 2 by Morris water maze test; assay type: functional, organism-based
Mus musculus [9] = assay: Cognitive-enhancing effect in ICR mouse assessed as reduction of scopolamine-induced escape latency at 1 to 20 mg/kg, po administered 1 hr before scopolamine challenge measured on day 3 during trial 1 and 2 by Morris water maze test; assay type: functional, organism-based
HT-22 [10] = assay: Neuroprotective activity in mouse HT22 cells assessed as inhibition of glutamate-induced cell death after 24 hrs by MTT assay; assay type: functional, cell-based
HT-22 [11] = assay: Neuroprotective activity in mouse HT22 cells assessed as inhibition of glutamate-induced cell death at 10 uM after 24 hrs by MTT assay; assay type: functional; settings: HT-22, 24 h

Row | Compound | IC50 [1] [µM] | IC50 [2] [µM] | inhibition [1] | inhibition [2] | inhibition (HT-22 [3]) | Activity (Mus musculus [4]) | Activity (Mus musculus [5]) | Activity (Mus musculus [6]) | Activity (Mus musculus [7]) | Activity (Mus musculus [8]) | Activity (Mus musculus [9]) | inhibition (HT-22 [10]) | EC50 (HT-22 [10]; HT-22, 24 h) [µM] | inhibition at 10 µM (HT-22 [11]) [%]
1 | O=C1O[C@H]([C@@H](O)CO)C(O)=C1O [ASCORBIC ACID] | 76.8 | 35.2 |  |  |  |  |  |  |  |  |  |  |  | 
2 | COc1ccc(C(C)=O)c(O)c1O | 90.8 | 98.1 | Dose-dependent effect | Dose-dependent effect | Active | Non-toxic | Active | Active | Active | Active | inactive | Dose-dependent effect | 10.9 | 50
